Reference: patent publication US7919487B2, “Heteroaryl compounds” (Synta Pharmaceuticals Corporation, priority 2004, dated 2011)

Tested on: IL-12 production in human PBMC or THP-1 cells
Test: Human in vitro assay: inhibition of IL-12 production in human PBMC or THP-1 cells (ELISA)
Type: cell-based
Details: THP-1, human PBMC or THP-1 cells, IFNγ plus LPS or SAC stimulation, representative in vitro data
From the text: The biological activities of the compounds of the invention can be evaluated by a number of cell-based assays. One of such assays can be conducted using cells from human peripheral blood mononuclear cells (PBMC) or human monocytic cell line (THP-1). The cells are stimulated with a combination of human interferon-γ (IFNγ) and lipopolysaccharide or a combination of IFNγ and Staphylococcus aureus Cowan I in the presence of a test compound. The level of inhibition of IL-12 production can be measured by determining the amount of p70 by using a sandwich ELISA assay with anti-human IL-12 antibodies. IC50 of the test compound can then be determined. Specifically, PBMC or THP-1 cells are incubated with the test compound. Cell viability was assessed using the bioreduction of MTS [3-(4,5-dimethylthiazol-2-yl)-5-(3-carboxymethoxyphenyl)-2-(4-sulfophenyl)-2H-tetrazolium] (Promega, Madison, Wis.).
Reagents. Staphylococcus aureus Cowan I (SAC) was obtained from Calbiochem (La Jolla, Calif.), and lipopolysaccharide (LPS, Serratia marscencens) was obtained from Sigma (St Louis, Mo.). Human and mouse recombinant IFNγ were purchased from Boehringer Mannheim (Mannheim, Germany) and Pharmingen (San Diego, Calif.), respectively.
Human In Vitro Assay. Human PBMC were isolated by centrifugation using Ficoll-Paque (Pharmacia Biotech, Uppsala, Sweden) and prepared in RPMI medium supplemented with 10% fetal calf serum (FCS), 100 U/mL penicillin, and 100 μg/mL streptomycin. PBMC were plated in wells of a 96-well plate at a concentration of 5×10^5 cells/well, and primed by adding IFNγ (30 U/mL) for 22 h and stimulated by adding LPS (1 μg/mL), or by adding IFNγ (100 U/mL) and then stimulated by adding SAC (0.01%). A test pyrimidine compound was dissolved in DMSO, and added to wells of the 96-well plate. The final DMSO concentration was adjusted to 0.25% in all cultures, including the compound-free control. Human THP-1 cells were plated in wells, primed by adding IFNγ (100 U/mL) for 22 h and stimulated by adding SAC (0.025%) in the presence of different concentrations of the pyrimidine compound. Cell-free supernatants were taken 18 h later for measurement of cytokines. Cell viability was assessed using the bioreduction of MTS. Cell survival was estimated by determining the ratio of the absorbance in compound-treated groups versus compound-free control.
The supernatant was assayed for the amount of IL-12p40, IL-12p70, or IL-10 by using a sandwich ELISA with anti-human antibodies, i.e., a Human IL-12 p40 ELISA kit from R&D Systems (Berkeley, Calif.), and a Human IL-12 p70 or IL-10 ELISA kit from Endogen (Cambridge, Mass.). Assays were based on the manufacturer's instructions.
The biological activities of compounds were tested on human PBMC or THP-1 cells.

Compound | IC50 [nM]
COc1nc(N/N=C/c2c[nH]c3ccc(F)cc23)nc(N(C(C)C)C(C)C)n1 [Compound 4, {4-[N′-(5-Fluoro-1H-indol-3-ylmethylene)-hydrazino]-6-methoxy-[1,3,5]triazin-2-yl}-diisopropyl-amine] | 13000
COc1nc(N/N=C/c2cn(C(C)=O)c3ccccc23)nc(N(C(C)C)C(C)C)n1 [Compound 5, 1-{3-[(4-Diisopropylamino-6-methoxy-[1,3,5]triazin-2-yl)-hydrazonomethyl]-indol-1-yl}-ethanone] | 12000
COc1nc(N/N=C/c2c[nH]c3ccccc23)nc(N(C(C)C)C(C)C)n1 [Compound 2, {4-[N′-(1H-Indol-3-ylmethylene)-hydrazino]-6-methoxy-[1,3,5]triazin-2-yl}-diisopropyl-amine] | 13600
Cc1cccc(/C=N/Nc2nc(CCCOC(=O)Nc3ccc([N+](=O)[O-])cc3)cc(N(C)C)n2)c1 [Compound 28, (4-Nitro-phenyl)-carbamic acid 3-{6-dimethylamino-2-[N′-(3-methyl-benzylidene)-hydrazino]-pyrimidin-4-yl}-propyl ester] | 1400
Cc1[nH]c2ccc(NC(=O)c3cccc(-c4ccncc4F)n3)cc2c1C [Compound 103, 3′-Fluoro-[2,4′]bipyridinyl-6-carboxylic acid(2,3-dimethyl-1H-indol-5-yl)-amide] | 158
COc1nc(N/N=C/c2c[nH]c3c(C)cccc23)nc(N(C(C)C)C(C)C)n1 [Compound 3, Diisopropyl-{4-methoxy-6-[N′-(7-methyl-1H-indol-3-ylmethylene)-hydrazino]-[1,3,5]triazin-2-yl}-amine] | 7800
Cc1[nH]c2ccc(NC(=O)c3cc(NCCN4CCOCC4)nc(N4CCSC4)n3)cc2c1C [Compound 148, N-(2,3-dimethyl-1H-indol-5-yl)-6-(2-morpholinoethylamino)-2-(thiazolidin-3-yl)pyrimidine-4-carboxamide] | 55
Cc1[nH]c2ccc(NC(=O)c3cccc(-c4cncnc4)n3)cc2c1C [Compound 104, 6-Pyrimidin-5-yl-pyridine-2-carboxylic acid(2,3-dimethyl-1H-indol-5-yl)-amide] | > 1000
Cc1cccc(/C=N/Nc2nc(CCCO)cc(N(C)C)n2)c1 [Compound 27, 3-{6-Dimethylamino-2-[N′-(3-methyl-benzylidene)-hydrazino]-pyrimidin-4-yl}-propan-1-ol] | 9000
O=C(Nc1ccc2c(c1)CCC2)Nc1cccc(-c2ccncc2)n1 [Compound 100, 1-[2,4′]Bipyridinyl-6-yl-3-indan-5-yl-urea] | 148
CSc1nc(NC(=O)Nc2cccc(C)c2)nc(-c2ccncc2)n1 [Compound 144, 1-(4-(methylthio)-6-(pyridin-4-yl)-1,3,5-triazin-2-yl)-3-m-tolylurea] | 128
COc1ccc(CCOc2nc(N/N=C/c3cccc(C)c3)nc(-n3ccnc3)n2)cc1OC [Compound 21, N-{4-[2-(3,4-Dimethoxy-phenyl)-ethoxy]-6-imidazol-1-yl-[1,3,5]triazin-2yl}-N′-(3-methyl-benzylidene)-hydrazine] | 103
Cc1[nH]c2ccc(NC(=O)c3cc(NCCN4CCOCC4)nc(N(C)C)n3)cc2c1C [Compound 147, N-(2,3-dimethyl-1H-indol-5-yl)-2-(dimethylamino)-6-(2-morpholinoethylamino)pyrimidine-4-carboxamide] | > 1000
Cc1[nH]c2ccc(NC(=O)c3cc(OCCN4CCOCC4)cc(-c4ccncc4)n3)cc2c1C [Compound 101, 4-(2-Morpholin-4-yl-ethoxy)-[2,4′]bipyridinyl-6-carboxylic acid (2,3-dimethyl-1H-indol-5-yl)-amide] | 20
Cc1cccc(/C=N/Nc2nc(N)nc(-c3cccnc3)n2)c1 [Compound 143, (E)-4-(2-(3-methylbenzylidene)hydrazinyl)-6-(pyridin-3-yl)-1,3,5-triazin-2-amine] | > 1000
CCN(CC)c1cc(N/N=C/c2cccc(C)c2)nc(OCCN2CCOCC2)n1 [Compound 30, Diethyl-[6-[N′-(3-methyl-benzylidene)-hydrazino]-2-(2-morpholin-4-yl-ethoxy)-pyrimidin-4-yl]-amine] | 875
CSc1nc(NC(=O)Nc2cccc(C)c2)nc(-c2cccnc2)n1 [Compound 145, 1-(4-(methylthio)-6-(pyridin-3-yl)-1,3,5-triazin-2-yl)-3-m-tolylurea] | > 1000
COc1nc(N/N=C/c2cn(C)c3ccccc23)nc(N(C(C)C)C(C)C)n1 [Compound 1, Diisopropyl-{4-methoxy-6-[N′-(1-methyl-1H-indol-3-ylmethylene)-hydrazino]-[1,3,5]triazin-2-yl}-amine] | 13000
COc1ccc(CCOc2cc(N(C)C)nc(N/N=C/c3cccc(C)c3)n2)cc1OC [Compound 16, {6-[2-(3,4-Dimethoxy-phenyl)-ethoxy]-2-[N′-(3-methyl-benzylidene)-hydrazino]-pyrimidin-4-yl}-dimethyl-amine] | 1060
COc1ccc(CCOc2nc(N/N=C/c3c[nH]c4ccccc34)nc(N3CCSC3)n2)cc1OC [Compound 7, N-{4-[2-(3,4-Dimethoxy-phenyl)-ethoxy]-6-thiazolidin-3-yl-[1,3,5]triazin-2-yl}-N′-(1H-indol-3-ylmethylene)-hydrazine] | 20 to 53
COCCN(C)c1cc(C(=O)Nc2ccc3[nH]c(C)c(C)c3c2)nc(-c2ccncc2)c1 [Compound 102, 4-[(2-Methoxy-ethyl)-methyl-amino]-[2,4′]bipyridinyl-6-carboxylic acid(2,3-dimethyl-1H-indol-5-yl)-amide] | 2.6
Cc1[nH]c2ccc(NC(=O)c3cccc(-c4cn[nH]c4)n3)cc2c1C [Compound 108, 6-(1H-Pyrazol-4-yl)-pyridine-2-carboxylic acid(2,3-dimethyl-1H-indol-5-yl)-amide] | 218
COc1ccc(CCNc2nccc(N/N=C/c3cccc(C)c3)n2)cc1OC [Compound 17, [2-(3,4-Dimethoxy-phenyl)-ethyl]-{4-[N′-(3-methyl-benzylidene)-hydrazino]-pyrimidin-2-yl}-amine] | 636
Cc1cccc(/C=N/Nc2cc(OCCN3CCOCC3)nc(-c3ccncc3)n2)c1 [Compound 141, (E)-4-(2-(6-(2-(3-methylbenzylidene)hydrazinyl)-2-(pyridin-4-yl)pyrimidin-4-yloxy)ethyl)morpholine] | 94.6
COc1ccc(CCOc2nc(N/N=C/c3cccc(C)c3)cc(N(C)C)n2)cc1OC [Compound 15, {2-[2-(3,4-Dimethoxy-phenyl)-ethoxy]-6-[N′-(3-methyl-benzylidene)-hydrazino]-pyrimidin-4-yl}-dimethyl-amine] | 20 to 56
Cc1cccc(/C=N/Nc2nc(CCCOC(=O)Nc3ccc(C(F)(F)F)cc3)cc(N(C)C)n2)c1 [Compound 29, (4-Trifluoromethyl-phenyl)-carbamic acid 3-{6-dimethylamino-2-[N′-(3-methyl-benzylidene)-hydrazino]-pyrimidin-4-yl}-propyl ester] | 10000
O=C1CCN(c2nc(N/N=C/c3c[nH]c4ccccc34)nc(OCCc3ccccn3)n2)CC1 [Compound 11, 1-[4-[N′-(1H-Indol-3-ylmethylene)-hydrazino]-6-(2-pyridin-2-yl-ethoxy)-[1,3,5]triazin-2-yl]-piperidin-4-one] | 500
